The source of these data is US20240124503A1, “HETEROAROMATIC PHOSPHONIUM SALTS AND THEIR USE TREATING CANCER” (FLORATEK PHARMA S.A., priority 2021, published 2024).

A word on the IC50: it is the concentration that inhibits the measured activity by half.

What all share (assay type): cell-based
The subject of one assay is SH-SY-5Y. The experiment in a line: Cell viability assay, SH-SY-5Y. The following applies: Homo sapiens, SH-SY5Y; brain carcinoma cell line SH-SY-5Y. On the procedure: (§1) Antitumor activity of the compounds and doxorubicin as a positive control was assessed by using the CellTiter-Blue Cell Viability Assay (Promega, #G8082) or CellTiter-Glow® Luminescent Cell Viability assay (Promega #G7572) according to the manufacturer's instructions. The compounds were tested at 5 or 6 concentrations in half-log increments (highest concentration 30 μM or 100 μM) in duplicate or triplicate well conditions.
(§2) Tumor cells were grown at 37° C. in a humidified atmosphere with 5% CO2 in RPMI 1640 or DMEM medium, supplemented with 10% (v/v) fetal calf serum and 50 μg/ml gentamicin for up to 20 passages, and were passaged once or twice weekly. Cells were harvested using TrypLE or PBS buffer containing 1 mM EDTA, and the percentage of viable cells was determined using a CASY Model TI cell counter (OMNI Life Science). Cells were harvested from exponential phase cultures, counted and plated in 96 well flat-bottom microtiter plates at a cell density depending on the cell line's growth rate (4,000-20,000 cells/well depending on the cell line's growth rate, up to 60,000 for hematological cancer cell lines) in RPMI 1640 or DMEM medium supplemented with 10% (v/v) fetal calf serum and 50 μg/ml gentamicin (140 μl/well). […] Viability of cells was quantified by the CellTiter-Blue® cell viability assay (Promega G8081) or CellTiter-Glow® Luminescent Cell Viability assay (Promega #G7572). […]

The test system of the next assay is Mia-Pa-Ca-2. Kind of assay: Cell viability assay, Mia-Pa-Ca-2. As to conditions: Homo sapiens, MIA PaCa-2; pancreatic carcinoma cell line Mia-Pa-Ca-2. Here is the method:
as §1, §2

A further assay has as its system breast PDX. The experiment in a line: Cell viability, breast PDX (panel statement). As to conditions: Table 5; read-out: IC50, growth of breast PDX. On the procedure:
(§3) PDX-derived cell cultures were obtained from tumors explanted from mice and isolated by mechanical and enzymatic dissociation. […] Cells were harvested and seeded in 96-wells plates at a density of 1.25 to 5×10^3 cells/well for cytotoxicity assays. Cells were incubated 48 h at 37° C. prior to addition of test molecules and vehicle (DMSO, 0.1%) at desired final concentrations. Cell viability was assessed before drugs' addition (To) and 5 days after test molecules addition by measuring ATP cell content using CellTiter-Glo® Luminescent Cell Viability Assay (Promega) according to the manufacturer's instructions. Luciferase activity was measured on a luminometer (PerkinElmer® EnVision™). Each concentration of compounds was tested in triplicate.
(§4) Viability was calculated as a percentage of ATP value compared to vehicle treated controls.
(§5) For PDX primary cell cultures, the tumour tissue was washed with PBS containing antibiotic-antimycotic and non-tumour tissue and necrotic tumour tissues were separated. The tumour tissue was transferred to a new dish and cut into 1˜2 mm^3 fragments, resuspended in RPMI-1640 medium and centrifuged at 1,200 rpm for 6 min at room temperature. The pelleted material was resuspended with 15 mL of Tumour Cell Digestion Solution and incubated at 37° C. for 1 hour with agitation. […]

A further assay has as its system colon cancer cell. Kind of assay: Cell viability, colon cancer cells (panel statement). As to conditions: summary of Table 6; read-out: IC50, colon cancer cell growth. On the procedure: as §1, §2
The test system of the next assay is esophagus PDX. The experiment in a line: Cell viability, esophagus PDX (panel statement). The following applies: text summary of Table 9; read-out: IC50, esophagus PDX growth. Here is the method: as §3, §4, §5

Consider `COc1c(O)ccc2c(=O)c(O)c(-c3ccc(CCCC[P+](c4ccccc4)(c4ccccc4)c4ccccc4)cc3)oc12` [SND190, (4-(4-(3,7-Dihydroxy-8-methoxy-4-oxo-4H1-chromen-2-yl)phenyl)butyl)triphenylphosphonium bromide], for which the IC50 in the assay with SH-SY-5Y is 2600 nM; in the assay with Mia-Pa-Ca-2, 330 nM; with breast PDX, below 20000 nM; in the assay on colon cancer cell it was below 20000 nM; in the assay with esophagus PDX, below 20000 nM.
